How the values were obtained:
Assay type in all cases: cell-based
AKTpS473 = assay: Western blot IC40 of downstream effector readout; conditions: concentration inhibiting AKTpS473 readout by 40%, SkMel133
Experimental: (§1) In total, cells were treated with 89 unique perturbations (Table 3). In paired combinations, each drug concentration was selected to inhibit the readout for the presumed target or the downstream effectors by 40% (IC40) as determined by Western Blot experiments. In single agent perturbations, each drug is applied at two different concentrations, IC40 and 2×IC40.

P27/Kip1 = assay: Western blot IC40 of downstream effector readout; conditions: concentration changing P27/Kip1 readout by 40%, SkMel133
Experimental: as §1

SkMel133 cells = assay: Cell viability, resazurin assay; conditions: highest doses applied
Experimental: All phenotypic measurements were made in perturbation conditions identical to those in proteomic measurements. Cell viability and cell cycle progression were measured 72 hours after drug treatment using the Resazurin assay and flow cytometry analysis respectively. The percentage of cells in the G1, G2/M, and S phases and sub-G1 fraction were recorded based on the respective distribution of DNA content in each phase.

c-Myc = assay: Western blot of c-Myc expression; conditions: 24 hours after drug treatment, SkMel133
Experimental: (§2) FIGS. 6A-6E illustrate the combined targeting of c-Myc with MEK and BRAF leads to synergistic response in melanoma cells. […] The leftward shift of isocurves implies synergistic interactions between the applied perturbations. u denotes strength of in silico perturbations. […] The BRD4 level is unchanged in response to JQ1 treatment. […] C-Myc expression is targeted with BRD4 inhibitor, JQ1. […] Cell viability is measured using the resazurin assay. […] The combination index (CI) calculated using the drug dose response curves quantifies the drug interactions between JQ1, MEKi and RAFi (left panel). CI for a given level of inhibition is a measure of the fractional shift between the combination doses (C1 and C2) and the single agent's inhibitory concentration (Cx,1, Cx,2). It is formulated as CI=(C1/Cx,1)[…](C2/Cx,2). Amax is the response of melanoma cells to JQ1, MEKi and RAFi at highest doses applied (right panel). 1-Amax is the fraction of cells alive in response to highest drug dose normalized with respect to the non-drug treated condition. […] 86% of cells are in G1 state 48 hours after JQ1 treatment, while 42% of the cells are in G1 state before drug treatment (error bars: ±SEM in 3 biological replicates).
First, it was postulated whether c-Myc levels in SkMel133 cells could be targeted using JQ1. […]

BRD4 = assay: Western blot of BRD4 level; conditions: 24 hours after treatment
Experimental: as §2

4EBP1pS65 = assay: Western blot IC40 of downstream effector readout; conditions: concentration inhibiting 4EBP1pS65 readout by 40%, SkMel133
Experimental: as §1

GSK3pS21 = assay: Western blot IC40 of downstream effector readout; conditions: concentration inhibiting GSK3pS21 readout by 40%, SkMel133
Experimental: as §1

MAPK1pT202 = assay: Western blot IC40 of downstream effector readout; conditions: concentration inhibiting MAPK1pT202 readout by 40%, SkMel133
Experimental: as §1

S6pS240 = assay: Western blot IC40 of downstream effector readout; conditions: concentration inhibiting S6pS240 readout by 40%, SkMel133
Experimental: as §1

STAT3pY705 = assay: Western blot IC40 of downstream effector readout; conditions: concentration inhibiting STAT3pY705 readout by 40%, SkMel133
Experimental: as §1

For `O=c1[nH]c2ccccc2n1C1CCN(Cc2ccc(-c3nc4cc5nc[nH]c5cc4nc3-c3ccccc3)cc2)CC1` [AKTi 1/2], which “Dose 1 (IC40)” value (AKTpS473) is on record?
Its value is 5.000 nM.

With `O=C(CCCCCCSc1ccc2ccccc2c1)NO` [HNHA] as the molecule, how does the “Dose 1 (IC40)” value (P27/Kip1) read?
The value was 6,000 nM.

`Cc1sc2c(c1C)C(c1ccc(Cl)cc1)=N[C@@H](CC(=O)OC(C)(C)C)c1nnc(C)n1-2` [JQ1] was tested. Which “maximal effect level (Amax, response to the drugs at highest doses)” value (SkMel133 cells) did it give?
Its value is 10%.

What about the c-Myc expression level (c-Myc) of the same molecule?
The c-Myc expression level was “reduced”.

And the BRD4 level (BRD4)?
Its BRD4 level is “unchanged”.

How did the “Dose 1 (IC40)” value (4EBP1pS65) turn out when `COc1ccc(C2=NC(c3ccc(Cl)cc3)C(c3ccc(Cl)cc3)N2C(=O)N2CCNC(=O)C2)c(OC(C)C)c1` (stereo not shown) [Nutlin] was run?
Its value is 3,000 nM.

`CC(C)(C)c1nc2c3cc[nH]c(=O)c3c3cc(F)ccc3c2[nH]1` [P6] was tested. Which “Dose 1 (IC40)” value (GSK3pS21) did it give?
The value was 20 nM.

Which “Dose 1 (IC40)” value (MAPK1pT202) does the source give for `O=C(NOC[C@H](O)CO)c1ccc(F)c(F)c1Nc1ccc(I)cc1F` [PD0325901] here?
The value was 1.5 nM.

For `CCCS(=O)(=O)Nc1ccc(F)c(C(=O)c2c[nH]c3ncc(Cl)cc23)c1F` [PLX4720], which “Dose 1 (IC40)” value (MAPK1pT202) is on record?
The value was 60 nM.

How did the “Dose 1 (IC40)” value (S6pS240) turn out when `Cn1cc(C2=C(c3cn(CCCN)c4ccccc34)C(=O)NC2=O)c2ccccc21` [RO-31-7549] was run?
The value was 3500 nM.

With `O=[N+]([O-])c1ccc2c(c1)S(=O)(=O)C=C2` [Stattic] as the molecule, how does the “Dose 1 (IC40)” value (STAT3pY705) read?
Its value is 600 nM.

How did the “Dose 1 (IC40)” value (S6pS240) turn out when `CO[C@H]1C[C@@H]2CC[C@@H](C)[C@@](O)(O2)C(=O)C(=O)N2CCCC[C@H]2C(=O)O[C@H]([C@H](C)C[C@@H]2CC[C@@H](OC(=O)C(C)(CO)CO)[C@H](OC)C2)CC(=O)[C@H](C)/C=C(\C)[C@@H](O)[C@@H](OC)C(=O)[C@H](C)C[C@H](C)/C=C/C=C/C=C/1C` [Temsirolimus] was run?
The value was 0.3 nM.

How did the “Dose 1 (IC40)” value (AKTpS473) turn out when `FC(F)c1nc2ccccc2n1-c1nc(N2CCOCC2)nc(N2CCOCC2)n1` [ZSTK474] was run?
Its value is 600 nM.

— US20150345047A1, “SYSTEMS AND METHODS FOR IDENTIFYING DRUG COMBINATIONS FOR REDUCED DRUG RESISTANCE IN CANCER TREATMENT” (Memorial Sloan Kettering Cancer Center, priority 2014, published 2015)
